Measurements as given in patent US20090012152A1, “Use of Tetramic Acid Derivatives for Controlling Insects from the Genus of the Plane Lice (Sternorrhyncha)” (Bayer CropScience Aktiengesellschaft, priority 2005, published 2009).

Key:
[1] = tested on: Bemisia tabaci; test: Example 38: melons treated against Bemisia tabaci; format: in vivo; conditions: nymphs on leaves, g a.i./ha: Confidor 100, I-4 72
Protocol: In three replications, plots of a size of about 7.5 m^2 with melons of the cultivar “Piel DE Sapo” are treated against Bemisia tabaci. The application is carried out with a motor-operated knapsack sprayer. Here, the active compound Example (I-4) (240 SC), in a tank mix with 0.1% of a.i. of rapeseed oil methyl ester (500 EW), and the commercial standard Confidor (200 SL) are applied at the stated application rates. Two applications are carried out, at an interval of 7 days and at an application rate of 233 l of water/ha.
Evaluation is carried out 7 and 15 days after the second treatment by rating the kill of the animals (nymphs) on the leaves.

[2] = tested on: Dysmicoceus brevipes; test: Example 30a: guyabano tree treated against Dysmicoceus brevipes; format: in vivo; conditions: on fruits, g a.i./m crown height: Lorsban 180, I-4 48
Protocol: In three replications, in each case one guyabano tree is treated against Dysmicoceus brevipes. Here, the active compound Example (I-4) (240 SC), in a tank mix with 0.1% of rapeseed oil methyl ester (500 EW), is, at the stated application rate, tested against the commercial standard Lorsban (500 EC), at the stated application rate. The application is carried out using a motor-operated knapsack sprayer. Here, each plant is treated with spray liquor.
Evaluation is carried out 3, 7 and 14 days after the treatment by rating the kill in percent on the fruits.

## CCOC(=O)OC1=C(c2cc(C)ccc2C)C(=O)NC12CCC(OC)CC2 (centres unmarked) [Example (I-4)]
[1]; 7 d after second treatment
  Kill (%) 7 d: 85.3%
[1]; 15 d after second treatment
  Kill (%) 15 d: 95.5%
[2]; 3 days after treatment
  Kill (%) 3 days: 89.8%
[2]; 7 days after treatment
  Kill (%) 7 days: 100%
[2]; 14 days after treatment
  Kill (%) 14 days: 100%
